Reference: ChEMBL document CHEMBL5724914, “Linking interpersonal differences in gut microbiota composition and drug biotransformation activity” (2024)

conditions: human gut metagenome, 24 h, 2 µM
Further: call rule not given here.

Bacterial Biotransformation	Structure (SMILES)
Compound NOT metabolized	CC(C)OC(=O)C(C)(C)Oc1ccc(C(=O)c2ccc(Cl)cc2)cc1 [FENOFIBRATE]
Compound metabolized	CCCCCOC(=O)Nc1nc(=O)n([C@@H]2O[C@H](C)[C@@H](O)[C@H]2O)cc1F [CAPECITABINE]

test: (§1) The drug is tested on Z-001 corresponding to mouse gut metagenome with ENA study accession number: PRJEB37062 and ENA sample accession number: ERS12561801 for biotransformation under anaerobic condition. The drug concentrations were measured over 9 timepoints collected between 0 and 24 hours of incubation by liquid-chromatography-coupled mass spectrometry (LC–MS); conditions: 2 µM

Bacterial Biotransformation	Structure (SMILES)
Compound NOT metabolized	CC(C)OC(=O)C(C)(C)Oc1ccc(C(=O)c2ccc(Cl)cc2)cc1 [FENOFIBRATE]
Compound metabolized	CCCCCOC(=O)Nc1nc(=O)n([C@@H]2O[C@H](C)[C@@H](O)[C@H]2O)cc1F [CAPECITABINE]

conditions: human gut metagenome, 24 h, 2 µM; remark: another data set of the same source

Bacterial Biotransformation	Structure (SMILES)
Compound metabolized	CC(C)OC(=O)C(C)(C)Oc1ccc(C(=O)c2ccc(Cl)cc2)cc1 [FENOFIBRATE]
Compound metabolized	CCCCCOC(=O)Nc1nc(=O)n([C@@H]2O[C@H](C)[C@@H](O)[C@H]2O)cc1F [CAPECITABINE]

conditions: human gut metagenome, 24 h, 2 µM; remark: another data set of the same source

Bacterial Biotransformation	Structure (SMILES)
Compound NOT metabolized	CC(C)OC(=O)C(C)(C)Oc1ccc(C(=O)c2ccc(Cl)cc2)cc1 [FENOFIBRATE]
Compound metabolized	CCCCCOC(=O)Nc1nc(=O)n([C@@H]2O[C@H](C)[C@@H](O)[C@H]2O)cc1F [CAPECITABINE]

conditions: human gut metagenome, 24 h, 2 µM; remark: another data set of the same source

Bacterial Biotransformation	Structure (SMILES)
Compound NOT metabolized	CC(C)OC(=O)C(C)(C)Oc1ccc(C(=O)c2ccc(Cl)cc2)cc1 [FENOFIBRATE]
Compound metabolized	CCCCCOC(=O)Nc1nc(=O)n([C@@H]2O[C@H](C)[C@@H](O)[C@H]2O)cc1F [CAPECITABINE]

conditions: human gut metagenome, 24 h, 2 µM; remark: another data set of the same source

Bacterial Biotransformation	Structure (SMILES)
Compound metabolized	CC(C)OC(=O)C(C)(C)Oc1ccc(C(=O)c2ccc(Cl)cc2)cc1 [FENOFIBRATE]
Compound NOT metabolized	CCCCCOC(=O)Nc1nc(=O)n([C@@H]2O[C@H](C)[C@@H](O)[C@H]2O)cc1F [CAPECITABINE]

conditions: human gut metagenome, 24 h, 2 µM; remark: another data set of the same source

Bacterial Biotransformation	Structure (SMILES)
Compound metabolized	CC(C)OC(=O)C(C)(C)Oc1ccc(C(=O)c2ccc(Cl)cc2)cc1 [FENOFIBRATE]
Compound metabolized	CCCCCOC(=O)Nc1nc(=O)n([C@@H]2O[C@H](C)[C@@H](O)[C@H]2O)cc1F [CAPECITABINE]

test: as §1, with “Z-028” for “Z-001”, “ERS12561827” for “ERS12561801”; conditions: 2 µM

Bacterial Biotransformation	Structure (SMILES)
Compound metabolized	CC(C)OC(=O)C(C)(C)Oc1ccc(C(=O)c2ccc(Cl)cc2)cc1 [FENOFIBRATE]
Compound metabolized	CCCCCOC(=O)Nc1nc(=O)n([C@@H]2O[C@H](C)[C@@H](O)[C@H]2O)cc1F [CAPECITABINE]

test: as §1, with “Z-013” for “Z-001”, “rabbit” for “mouse”, “ERS12561813” for “ERS12561801”; conditions: 2 µM

Bacterial Biotransformation	Structure (SMILES)
Compound metabolized	CC(C)OC(=O)C(C)(C)Oc1ccc(C(=O)c2ccc(Cl)cc2)cc1 [FENOFIBRATE]
Compound metabolized	CCCCCOC(=O)Nc1nc(=O)n([C@@H]2O[C@H](C)[C@@H](O)[C@H]2O)cc1F [CAPECITABINE]

test: as §1, with “Z-007” for “Z-001”, “rat” for “mouse”, “ERS12561807” for “ERS12561801”; conditions: 2 µM

Bacterial Biotransformation	Structure (SMILES)
Compound metabolized	CC(C)OC(=O)C(C)(C)Oc1ccc(C(=O)c2ccc(Cl)cc2)cc1 [FENOFIBRATE]
Compound NOT metabolized	CCCCCOC(=O)Nc1nc(=O)n([C@@H]2O[C@H](C)[C@@H](O)[C@H]2O)cc1F [CAPECITABINE]

test: as §1, with “Z-024” for “Z-001”, “pig” for “mouse”, “ERS12561823” for “ERS12561801”; conditions: 2 µM

Bacterial Biotransformation	Structure (SMILES)
Compound NOT metabolized	CC(C)OC(=O)C(C)(C)Oc1ccc(C(=O)c2ccc(Cl)cc2)cc1 [FENOFIBRATE]
Compound metabolized	CCCCCOC(=O)Nc1nc(=O)n([C@@H]2O[C@H](C)[C@@H](O)[C@H]2O)cc1F [CAPECITABINE]

conditions: human gut metagenome, 24 h, 2 µM; remark: another data set of the same source

Bacterial Biotransformation	Structure (SMILES)
Compound metabolized	CC(C)OC(=O)C(C)(C)Oc1ccc(C(=O)c2ccc(Cl)cc2)cc1 [FENOFIBRATE]
Compound metabolized	CCCCCOC(=O)Nc1nc(=O)n([C@@H]2O[C@H](C)[C@@H](O)[C@H]2O)cc1F [CAPECITABINE]

test: as §1, with “Z-009” for “Z-001”, “pig” for “mouse”, “ERS12561809” for “ERS12561801”; conditions: 2 µM

Bacterial Biotransformation	Structure (SMILES)
Compound metabolized	CC(C)OC(=O)C(C)(C)Oc1ccc(C(=O)c2ccc(Cl)cc2)cc1 [FENOFIBRATE]
Compound metabolized	CCCCCOC(=O)Nc1nc(=O)n([C@@H]2O[C@H](C)[C@@H](O)[C@H]2O)cc1F [CAPECITABINE]

test: as §1, with “WLS-082” for “Z-001”, “human” for “mouse”, “ERS12561751” for “ERS12561801”; conditions: 2 µM

Bacterial Biotransformation	Structure (SMILES)
Compound NOT metabolized	CC(C)OC(=O)C(C)(C)Oc1ccc(C(=O)c2ccc(Cl)cc2)cc1 [FENOFIBRATE]
Compound metabolized	CCCCCOC(=O)Nc1nc(=O)n([C@@H]2O[C@H](C)[C@@H](O)[C@H]2O)cc1F [CAPECITABINE]

conditions: human gut metagenome, 24 h, 2 µM; remark: another data set of the same source

Bacterial Biotransformation	Structure (SMILES)
Compound metabolized	CC(C)OC(=O)C(C)(C)Oc1ccc(C(=O)c2ccc(Cl)cc2)cc1 [FENOFIBRATE]
Compound metabolized	CCCCCOC(=O)Nc1nc(=O)n([C@@H]2O[C@H](C)[C@@H](O)[C@H]2O)cc1F [CAPECITABINE]

conditions: human gut metagenome, 24 h, 2 µM; remark: another data set of the same source

Bacterial Biotransformation	Structure (SMILES)
Compound metabolized	CC(C)OC(=O)C(C)(C)Oc1ccc(C(=O)c2ccc(Cl)cc2)cc1 [FENOFIBRATE]
Compound metabolized	CCCCCOC(=O)Nc1nc(=O)n([C@@H]2O[C@H](C)[C@@H](O)[C@H]2O)cc1F [CAPECITABINE]

test: as §1, with “WLS-006” for “Z-001”, “human” for “mouse”, “ERS12561741” for “ERS12561801”; conditions: 2 µM

Bacterial Biotransformation	Structure (SMILES)
Compound metabolized	CC(C)OC(=O)C(C)(C)Oc1ccc(C(=O)c2ccc(Cl)cc2)cc1 [FENOFIBRATE]
Compound metabolized	CCCCCOC(=O)Nc1nc(=O)n([C@@H]2O[C@H](C)[C@@H](O)[C@H]2O)cc1F [CAPECITABINE]

conditions: human gut metagenome, 24 h, 2 µM; remark: another data set of the same source

Bacterial Biotransformation	Structure (SMILES)
Compound metabolized	CC(C)OC(=O)C(C)(C)Oc1ccc(C(=O)c2ccc(Cl)cc2)cc1 [FENOFIBRATE]
Compound metabolized	CCCCCOC(=O)Nc1nc(=O)n([C@@H]2O[C@H](C)[C@@H](O)[C@H]2O)cc1F [CAPECITABINE]

test: as §1, with “Z-020” for “Z-001”, “rabbit” for “mouse”, “ERS12561819” for “ERS12561801”; conditions: 2 µM

Bacterial Biotransformation	Structure (SMILES)
Compound metabolized	CC(C)OC(=O)C(C)(C)Oc1ccc(C(=O)c2ccc(Cl)cc2)cc1 [FENOFIBRATE]
Compound metabolized	CCCCCOC(=O)Nc1nc(=O)n([C@@H]2O[C@H](C)[C@@H](O)[C@H]2O)cc1F [CAPECITABINE]

test: as §1, with “Z-027” for “Z-001”, “to” for “to mouse gut”, “ERS12561826” for “ERS12561801”; conditions: 2 µM

Bacterial Biotransformation	Structure (SMILES)
Compound metabolized	CC(C)OC(=O)C(C)(C)Oc1ccc(C(=O)c2ccc(Cl)cc2)cc1 [FENOFIBRATE]
Compound metabolized	CCCCCOC(=O)Nc1nc(=O)n([C@@H]2O[C@H](C)[C@@H](O)[C@H]2O)cc1F [CAPECITABINE]
